From US20160176894A1, “TAXANE AND ABEO-TAXANE ANALOGS” (Arbor Therapeutics, LLC, priority 2013, published 2016)
Read-outs that look alike come from different tables or passages of the source.

Legend:
CEM/VLB100 cells = experiment: MTT-based cytotoxicity assay, CEM/VLB100; format: cell-based, human; details: for IC50: vinblastine-resistant subline (MDR1); for Degree of resistance (CEM/VLB100): IC50 of the resistant line divided by IC50 of sensitive CEM cells
Description: (§1) The second set of cells tested, CCRF-CEM or simply CEM, were derived from the blood of a patient with acute lymphobiastic leukemia. (Foley, G. E.; Lazarus, H.; Farber, S.; Uzman, B. G.; Boone, B. A.; McCarthy, R. E., Continuous Culture of Human Lymphoblasts from Peripheral Blood of a Child with Acute Leukemia. Cancer 1965, 18, 522-529). The subline CEM/VLB100 was developed to be resistant to up to vinblastine at 100 ng/ml. (Beck, W. T.; Mueller, T. J.; Tanzer, L. R., Altered surface membrane glycoproteins in Vinca alkaloid-resistant human leukemic lymphoblasts. Cancer Res. 1979, 39, 2070-2076). Drug resistance is achieved by overexpression of the MDR1 gene. Resistance in the CEM subline designated CEM/VM-1-5, however, is “atypical.” (Danks, M. K.; Yalowich, J. C.; Beck, W. T., Atypical multiple drug resistance in a human leukemic cell line selected for resistance to teniposide (VM-26). Cancer Res. 1987, 47, 1297-1301). The classes of drugs included in the “classic” multiple drug resistance phenotype are Vinca alkaloids, anthracyclines, epipodophyllotoxins and antibiotics. However, CEM/VM-1-5 cells retain sensitivity to the Vinca alkaloids despite resistance and cross-resistance to etoposide, anthracyclines and mitoxantrone. (Danks, M. K.; Schmidt, C. A.; Cirtain, M. C.; Suttle, D. P.; Beck, W. T., Altered catalytic activity of and DNA cleavage by DNA topoisomerase II from human leukemic cells selected for resistance to VM-26. Biochemistry 1988, 27, 8861-8869). Resistance in CEM/VM-1-5 cells is effected by over expression of the ABCC1 (MRP1) gene. CEM, CEM/VLB100 and CEM/VM-1-5 cells were obtained from Dr. WT Beck, University of Illinois at Chicago.

[1] = system: MES-SA uterine sarcoma line; experiment: MTT-based cytotoxicity assay, MES-SA; format: cell-based, human; details: sensitive parental line
Excerpt: (§2) These lines included a uterine sarcoma line, MES-SA. (Harker, W. G.; MacKintosh, F. R.; Sikic, B. I., Development and characterization of a human sarcoma cell line, MES-SA, sensitive to multiple drugs. Cancer Res. 1983, 43, 4943-4950), and its doxorubicin-resistant subline, MES-SA/DxS. (Harker, W. G.; Sikic, B. I., Multidrug (pleiotropic) resistance in doxorubicin-selected variants of the human sarcoma cell line MES-SA. Cancer Res. 1985, 45, 4091-4096). […] However, resistance to bleomycin, cisplatin, carmustine, 5-fluorouracil or methotrexate is not observed. MES-SA/Dx5 cells express high levels of ABCB 1 (MDR1) mRNA and its gene product, the P-glycoprotein. MES-SA and MES-SA/Dx5 were purchased from the American Type Culture Collection (ATCC, Manassas, Va.).

CEM/VM-1-5 cells = experiment: MTT-based cytotoxicity assay, CEM/VM-1-5; format: cell-based, human; details: for IC50: MTT, atypical MDR subline (ABCC1/MRP1); for Degree of resistance (CEM/VM-1-5): IC50 of the resistant line divided by IC50 of sensitive CEM cells
Description: as §1

CCRF-CEM (CEM) cells = experiment: MTT-based cytotoxicity assay, CEM; format: cell-based, human; details: sensitive parental line
Excerpt: as §2, §1

[2] = system: MES-SA/Dx5 doxorubicin-resistant subline; experiment: MTT-based cytotoxicity assay, MES-SA/Dx5; format: cell-based, human; details: for IC50: MTT, multidrug resistant subline (MDR1/P-glycoprotein); for Degree of resistance (MES-SA/Dx5): IC50 of the resistant line divided by IC50 of sensitive MES-SA cells
Excerpt: as §2

A2780-A5 = experiment: MTS proliferation assay, A2780-A5; format: cell-based; details: read-out: MTS-6: 72 hr proliferation IC50, A2780-A5
HCT-15 (MDR+) = experiment: MTS proliferation assay, HCT-15; format: cell-based; details: read-out: MTS-6: 72 hr proliferation IC50, HCT-15
[3] = system: cancer cell lines, both MDR expressing and non-MDR expressing; experiment: MTS proliferation assay, cell line panel (general statements); format: cell-based
MV522 = experiment: MTS proliferation assay, MV522; format: cell-based; details: read-out: MTS-6: 72 hr proliferation IC50, MV522
22Rv1 = experiment: MTS proliferation assay, 22Rv1; format: cell-based; details: read-out: MTS-6: 72 hr proliferation IC50, 22Rv1
MDAH2774 = experiment: MTS proliferation assay, MDAH2774; format: cell-based; details: read-out: MTS-6: 72 hr proliferation IC50, MDAH2774
tubulin = tubulin protein assembly assay; format: biochemical; details: for ED50/ED50 (Paclitaxel): ratio to paclitaxel; for EC50: tubulin assembly, read-out: ED50 (the source's name)
A2680-DXR1 (MDR+) = experiment: MTS proliferation assay, A2680-DXR1; format: cell-based; details: 72 hr, read-out: MTS-6: 72 hr proliferation IC50, A2680-DXR1
HT29 = experiment: MTS proliferation assay, HT29; format: cell-based; details: Homo sapiens, HT-29, MDR negative, extrapolated outside tested range
KB = experiment: MTS proliferation assay, KB; format: cell-based; details: Homo sapiens, MDR negative, extrapolated outside tested range
KBV = experiment: MTS proliferation assay, KBV; format: cell-based; details: MDR positive
SKNAS = experiment: MTS proliferation assay, SKNAS; format: cell-based; details: Homo sapiens, SK-N-AS, MDR negative, extrapolated outside tested range
MESSA/DOX = experiment: MTS proliferation assay, MESSA/DOX; format: cell-based; details: Homo sapiens, MDR positive
DU145 = experiment: MTS proliferation assay, DU145; format: cell-based; details: Homo sapiens, DU-145, MDR negative, extrapolated outside tested range
MV522/Mdr1 = experiment: MTS proliferation assay, MV522/Mdr1; details: read-out: IC50 MV522/Mdr1
MDAMB435s = experiment: MTS proliferation assay, MDAMB435s; format: cell-based; details: Homo sapiens, MDA-MB-435S, MDR negative, extrapolated outside tested range

Row | Compound | Degree of resistance (CEM/VLB100) (CEM/VLB100 cells) | IC50 ([1]; Homo sapiens, MES-SA) | IC50 (CEM/VM-1-5 cells; Homo sapiens) | Degree of resistance (CEM/VM-1-5) (CEM/VM-1-5 cells) | IC50 ([2]; Homo sapiens, MES-SA/Dx5) | Degree of resistance (MES-SA/Dx5) [2] | IC50 (CEM/VLB100 cells; MTT) | IC50 [1] | IC50 (CEM/VM-1-5 cells) | IC50 (CCRF-CEM (CEM) cells) | IC50 [2] | ED50/ED50 (Paclitaxel) (tubulin) | EC50 (tubulin) | also measured
1 | CC[C@]1(O)C[C@@H]2CN(CCc3c([nH]c4ccccc34)[C@@](C(=O)OC)(c3cc4c(cc3OC)N(C)[C@H]3[C@@](O)(C(=O)OC)[C@H](OC(C)=O)[C@]5(CC)C=CCN6CC[C@]43[C@@H]65)C2)C1 [Vinblastine] | 255 ± 127 | […] | 1.3 ± 0.9 nM | 1.2 ± 0.07 | 43 ± 12 nM | 38.5 ± 0.7 | – | – | – | – | – | – | – | IC50 (CEM/VLB100 cells; Homo sapiens, CEM/VLB100, MTT): 227 ± 77 nM; IC50 (CCRF-CEM (CEM) cells; Homo sapiens, CCRF-CEM): 1 ± 0.8 nM
2 | C=CC1OC2CC3OCC3(OC(C)=O)C3C(OC(=O)c4ccccc4)C4(O)CC(OC(=O)C(O)C(CC(C)C)NC(=O)OC(C)(C)C)C(C)=C(C(OC(C)=O)C(O1)C23C)C4(C)C (stereo not drawn) [10-βTX (14b.2), 10-beta taxane acrolein acetal] | 3 ± 1 | 28 ± 16 nM | 9 ± 1 nM | 1.2 ± 0.3 | 36 ± 34 nM | 1.2 ± 0.5 | – | – | – | – | – | – | – | IC50 (CEM/VLB100 cells; Homo sapiens, CEM/VLB100, MTT): 22 ± 11 nM; IC50 (CCRF-CEM (CEM) cells; Homo sapiens, CCRF-CEM): 7.5 ± 0.7 nM
3 | Doxorubicin | 150 | – | – | 219 | – | 49 | 2100 nM | 2 nM | 3060 nM | 14 nM | 97 nM | – | – | –
4 | C=CC1OC2CC3OCC3(OC(C)=O)C3C(OC(=O)c4ccccc4)C4(C(C)(C)O)CC(OC(=O)C(O)C(CC(C)C)NC(=O)OC(C)(C)C)C(C)=C4C(OC(C)=O)C(O1)C23C (stereo not drawn) [10-αAT (15a.2)] | 4 ± 0 | – | – | 1.3 ± 1.4 | – | 1.6 ± 0.8 | 19 ± 9 nM | 9.5 ± 0.7 nM | 5 ± 4 nM | 5 ± 3 nM | 15 ± 8 nM | 0.53 | 1580 ± 460 nM | IC50 (A2780-A5; 72 hr): 0.282 nM; IC50 (HCT-15 (MDR+); 72 hr): 2.4 nM; IC50 [3]: < 1000 nM; IC50 (MV522; 72 hr): 3.5 nM; IC50 (22Rv1; 72 hr): 5.7 nM; IC50 (MDAH2774; 72 hr): 0.18 nM; affinity for tubulin (in words) (tubulin; compared to several recognized tubulin binding agents): surprisingly great affinity for tubulin; IC50 (A2680-DXR1 (MDR+)): 15 nM
6 | CC(=O)O[C@H]1C(=O)[C@@]2(C)[C@H]([C@H](OC(=O)c3ccccc3)[C@]3(O)C[C@H](OC(=O)[C@H](O)[C@@H](NC(=O)c4ccccc4)c4ccccc4)C(C)=C1C3(C)C)[C@]1(OC(C)=O)CO[C@@H]1C[C@@H]2O [Paclitaxel] | – | 9 ± 7 nM | < 11 nM | 4 | 19400 ± 204 nM | 3105 ± 2416 | 3030 nM | – | 8 nM | – | – | – | – | IC50 (A2780-A5; 72 h): < 0.002 nM; IC50 (HT29): < 0.002 nM; IC50 (HCT-15 (MDR+); Homo sapiens, HCT-15, 72 hr): 311 nM; IC50 (KB): < 0.002 nM; IC50 (KBV): ≥ 500 nM; IC50 (SKNAS): < 0.002 nM; IC50 (MV522; MV522, 72 h): 1.71 nM; IC50 (22Rv1; Homo sapiens, 22Rv1, 72 h): 1.7 nM; IC50 (MDAH2774; Homo sapiens, MDAH 2774, 72 h): 0.015 nM; IC50 (MESSA/DOX): ≥ 500 nM; IC50 (A2680-DXR1 (MDR+)): 3580 nM; IC50 (DU145): < 0.002 nM; IC50 (MV522/Mdr1): ≥ 500 nM; IC50 (MDAMB435s): < 0.002 nM
7 | C=C[C@H]1O[C@H]2C[C@H]3OC[C@@]3(OC(C)=O)[C@H]3[C@H](OC(=O)c4ccccc4)[C@]4(C(C)(C)O)C[C@H](OC(=O)[C@H](O)[C@H](CC(C)C)NC(=O)OC(C)(C)C)C(C)=C4[C@@H](OC(C)=O)[C@H](O1)[C@]23C [10-βAT (15b.2)] | 4 ± 0.3 | – | – | 0.9 ± 0.5 | – | 0.75 ± 0.07 | 453 ± 293 nM | 432 ± 261 nM | 77 ± 6 nM | 112 ± 60 nM | 328 ± 173 nM | – | – | –
8 | CC(=O)O[C@@]12CO[C@@H]1C[C@H](O)[C@@]1(C)C(=O)[C@H](O)C3=C(C)[C@@H](OC(=O)[C@H](O)[C@@H](NC(=O)OC(C)(C)C)c4ccccc4)C[C@@](O)([C@@H](OC(=O)c4ccccc4)[C@H]21)C3(C)C [Docetaxel] | – | – | – | – | – | – | – | – | – | – | – | 1.07 | 3180 ± 450 nM | –
9 | C=CC1OC2CC3OCC3(OC(C)=O)C3C(OC(=O)c4ccccc4)C4(O)CC(OC(=O)C(O)C(CC(C)C)NC(=O)OC(C)(C)C)C(C)=C(C(OC(C)=O)C(O1)C23C)C4(C)C (mixture of isomers) [10-αTX (14a.2)] | 3 ± 0.6 | – | – | – | – | 1.1 ± 0.3 | 43 ± 23 nM | 30 ± 14 nM | – | 14 ± 5 nM | 34 ± 24 nM | – | – | –
